In patent US4000259A, “Cyclic dodecapeptide analogs of somatostatin and intermediates” (American Home Products Corporation, priority 1975, dated 1976):

Columns and labels:
glucagon = settings: rats, nembutal 50 mg/kg i.p., compound subcutaneously 3100 μg/kg, blood 15 minutes after injection; control 10.5 ± 2
Description: (§1) The effect on glucagon, growth hormone and insulin levels of the compound of Example 7 was determined by injecting rats weighing about 200-240 g first with nembutal intraperitoneally at a dose of 50 mg/kg then after 5 minutes injecting the rats subcutaneously with a solution of the compound of Example 7 in saline at a dose of 3.1 mg/kg per rat. Blood samples are taken 15 minutes after injection with the compound of Example 7. The glucagon, growth hormone and insulin levels were determined by radioimmunoassay.

growth hormone = experiment: In vivo effect on growth hormone levels in nembutal-treated rats, radioimmunoassay; settings: nembutal 50 mg/kg i.p., compound subcutaneously 3100 μg/kg, blood 15 minutes after injection, control 296 ± 25
Description: as §1

insulin = experiment: In vivo effect on insulin levels in nembutal-treated rats, radioimmunoassay; settings: nembutal 50 mg/kg i.p., compound subcutaneously 3100 μg/kg, blood 15 minutes after injection, control 171 ± 4
Description: as §1

L-Lysyl-L-lysyl-L-asparaginyl-L-phenylalanyl-L-phenylalanyl-L-tryptophyl-L-lysyl-L-threonyl-L-phenylalanyl-L-threonyl-L-seryl-L-aspartic acid cyclic (12β→1ε)-peptide, triacetate [Example 7]
Glucagon (glucagon): 3.3 pg/mL
GH (growth hormone): 227 ± 32 ng/kg
Insulin (insulin): 182 ± 16 μU/ml
